Results on six compounds are retold here after patent US20060110341A1, “Cosmetic compositions containing Sophora alopecuroides L. extracts” (Unilever Home & Personal Care USA, Division Of Conopco, Inc., priority 2004, published 2006).

This experiment deals with mushroom tyrosinase (Sigma). Put plainly: Tyrosinase inhibition assay. The experiment is classed as biochemical. As to conditions: for IC50: 0.5 mM tyrosine, pH 7.00, tyrosinase 60.5 U/mL, read-out: IC50 tyrosinase inhibition activity: components. How it is done: Determination of melanin content within each MelanoDerm was performed by absorbance measurement at 475 nm. IC50 was determined by Tyrosinase inhibition assay. […] The reaction rate in the first 6.5 min is calculated based on the absorbance change at 475 nm.

`C=C(C)C(CC=C(C)C)Cc1c2c(c(O)c3c1OC(c1ccc(O)cc1)C3c1cc(O)cc(O)c1)C(=O)CC(c1ccc(O)cc1O)O2` (stereo not drawn) [Alopecurone A]: the “tyrosinase inhibition activity (in words)” value is recorded as “showing tyrosinase inhibition activity” and the IC50 stood at 9 µM.

For the compound `C=C(C)C(CC=C(C)C)Cc1c2c(c(O)c3c1OC(c1ccc(O)cc1)C3c1cc(O)cc(O)c1)C(=O)CC(c1ccc(O)cc1O)O2` (stereo not drawn) [Alopecurone B], the “tyrosinase inhibition activity (in words)” value was “showing tyrosinase inhibition activity” and the IC50 was found to be 5 µM.

On to `Oc1ccc(O)cc1` [Hydroquinone, reference compound], for which the IC50 stood at 36.4 µM. Further, where the note is “same value as the μM figure”, the “IC50 tyrosinase inhibition activity, in brackets by weight” value is “(4 micro-q/ml) micro-g/ml”.

`C=C(C)[C@H](CC=C(C)C)Cc1c(O)cc(O)c2c1O[C@H](c1ccc(O)cc1O)CC2=O` [Sophoraflavone G]: the IC50 worked out at 14 µM.

On to Sophoraflavone I, for which the half-inhibitory concentration (IC50) worked out at 15 µM.

For Sophoraflavone K, the IC50 is 1 µM.
